The results in this text go back to ChEMBL document CHEMBL1150873, “A new lysine derivative and new 3-bromopyrrole carboxylic acid derivative from two marine sponges” (J Nat Prod, 1998).

In brackets after ≈: the same amount, converted by molar mass.

Data set [1] has as its system Artemia. The experiment in a line: (§1) Toxicity in brine shrimp. The format is organism-based. Conditions: in vivo; call rule not given here.
Data set [2] concerns P388. As to the kind of experiment: Cytotoxicity against mouse P388 cells. The format is functional, cell-based.
Data set [3] is described as follows: as §1. It is filed as organism-based. Conditions: artemia, in vivo.

Turning to `O=C1NCC(O)n2cc(Br)cc21` (stereo not drawn), the Activity entry in data set [1] is recorded as “Not Active”.
One may read the IC50 as the concentration needed to halve the response being measured. A lower IC50 goes with greater potency. As usually defined, the LC50 is the concentration that kills 50% of the test population. A higher LC50 goes with lower toxicity. As to `C=C(C)[C@H]1CCC[C@@]2(C)CCC[C@@](C)(NC=O)[C@@H]12`, in data set [2], the IC50 was determined as 1.2 µg/mL (≈ 4.81 µM). The compound further registered an LC50 in data set [3] of 50 µg/mL (≈ 200 µM).
With `O=C1CCNC(=O)c2[nH]ccc21` [ALDISIN], in data set [1], the Activity entry is “Not Active”.
With `[C-]#[N+][C@]1(C)CCC[C@]2(C)CCC[C@H](C(=C)C)[C@@H]21`, in data set [2], the IC50 worked out at 8.3 µg/mL (≈ 35.9 µM).
For `C=C(C)[C@H]1CCC[C@@]2(C)CCC[C@@](C)(SC#N)[C@@H]12`, the LC50 in data set [3] turned out to be 50 µg/mL (≈ 190 µM).
Regarding `O=C(O)/C1=N/CCCC[C@@H](C(=O)O)N1`, the Activity result in data set [1] is “Not Active”.
As to `O=C1CCNC(=O)c2[nH]c(Br)cc21`, in data set [1], the Activity entry is listed as “Not Active”.
